Assay [1] is described as follows: Conditioned avoidance (discrete trial) test. The class given is in vivo, Male CD rats. The following applies: for ED50: Rattus norvegicus; for Activity at 40 mg/kg: 40 mg/kg perorally administered. As for the experimental part: The antipsychotic activity of the compounds of the invention is assessed via the conditioned avoidance (discrete trial) test. This test has excellent clinical correlation for antipsychotic activity.
Male CD rats (Charles River) maintained at approximately 400-450 gm body weight are used. Rats trained previously are placed in plexiglass experimental chambers equipped with a response lever, house light, and sonalert. A steel grid floor is wired for presentation of electric shock. Each trial consists of a fifteen-second warning tone (conditioned stimulus), continuing for an additional fifteen seconds accompanied by electric shock, (unconditioned stimulus). The rat can terminate a trial at any point by depression of the response lever. A response during the initial fifteen-second warning tone ends the trial before shock delivery and is considered an avoidance response, while a response occurring during shock delivery is an escape response. Trials are presented on a variable interval schedule of two minutes. The session consists of sixty trials. Animals are run two to three times weekly with control sessions always preceding a drug run, and with at least one day intervening, compounds are administered i.p. or p.o. at appropriate pre-treatment times to a minimum of five to six rats at each dose level over a range of doses.
The following experimental parameters are recorded by computer: (1) the number of intertrial interval responses, (2) the number of avoidance responses, (3) the number of escape responses, and (4) the number of trials in which no response occurred.
Response counts are summed over all subjects at a given dose. […] This number is expressed as a percentage of the total trials. Control performance is arbitrarily assigned a value of 100% for avoidance and the dose calculated to produce a 50% block in avoidance responding (AB50 ) is obtained from a dose-effect regression line fitted by the method of least squares. Potential antipsychotic compounds suppress avoidance responding and increase escape responding.

In assay [2] the target is limbic D-2 dopamine receptor (Rattus norvegicus, UniProt P61169). Kind of assay: biochemical. The following applies: for Ki: rat limbic tissue, 0.3 nM 3H-spiroperidol, 37° C., 10 min, read-out: Limbic D-2 Binding (Ki nM). The class given is binding, rats. On the procedure: The compounds of the invention are further studied for their ability to inhibit limbic D-2 dopamine receptor binding. This in vitro assay measures the ability of the compounds tested to bind to the dopamine receptor sites.
Sequence of limbic D-2 dopamine receptor (P61169 whole entry): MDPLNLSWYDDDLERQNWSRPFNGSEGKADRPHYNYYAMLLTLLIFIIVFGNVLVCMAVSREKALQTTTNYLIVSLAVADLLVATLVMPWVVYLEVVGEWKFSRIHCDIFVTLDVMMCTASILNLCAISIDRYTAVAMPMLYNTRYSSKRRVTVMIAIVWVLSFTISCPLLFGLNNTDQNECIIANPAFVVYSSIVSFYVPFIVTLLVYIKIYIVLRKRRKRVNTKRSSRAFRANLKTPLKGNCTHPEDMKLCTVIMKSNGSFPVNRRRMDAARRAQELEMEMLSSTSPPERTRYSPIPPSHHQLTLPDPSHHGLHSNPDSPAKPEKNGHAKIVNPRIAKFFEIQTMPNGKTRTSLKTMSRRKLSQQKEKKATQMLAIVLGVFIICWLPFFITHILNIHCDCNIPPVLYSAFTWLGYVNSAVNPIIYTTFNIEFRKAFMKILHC
Several rats are decapitated and the brains are rapidly removed. Limbic brain tissue (nucleus accumbens, septal area, olfactory tubercle) is dissected and homogenized on ice in 9 volumes of buffer (50 mM Tris-HCl, 120 mM NaCl, 5 mM KCl, 1 mM CaCl2, 1 mM MgCl2, 0.1% L-ascorbic acid, 10 μM pargyline HCl, pH 7.1) using a Polytron homogenizer at setting 5 for three 15-sec bursts. The homogenate is then diluted 4-fold with buffer and centrifuged at 30,000×g for 20 min, and the supernatant is discarded. The pellet is resuspended in the same volume of buffer and recentrifuged as before, again discarding the supernatant. This pellet is then resuspended in the same volume of buffer used in the homogenization, and the protein content of this preparation is assyed by the Lowry method. The homogenate is stored frozen at -70° C. until use.
Thirty μL of the homogenate (0.02-0.3 mg protein/sample) are incubated with 0.3 nM ^3 H-spiroperidol (New England Nuclear) and various concentrations of test drug in a final volume of 1 ml of the above buffer for 10 min in a 37° C. water bath. At the end of the incubation, 3 ml of cold 50 mM Tris-HCl, pH 7.7, are added to each tube, and the contents are rapidly vacuum-filtered through Whatman GF/B glass-fiber filters. The filters are then rapidly washed 3 times with 3 ml of the same buffer, placed in scintillation vials, and shaken for 15 min with 10 ml of Hydrofluor (National Diagnostics) scintillation cocktail. The vials are then counted in a Packard 460CD scintillation counter.
Specific binding is defined as total binding less binding in the presence of 1 μM (+)butaclamol. Binding in the presence of various concentrations of test drug is expressed as a per cent of specific binding when no drug is present.

Where [3] appears, read: po, perorally administered, discrete trial, rats, read-out: AB50 (the source's name).

Where a name gives a salt, the structure may show the parent alone. Read-outs that look alike come from different tables or passages of the source.

Broadly, the inhibition is the share of the control response that was lost under treatment. Take `O=C1[C@@H]2[C@@H]([C@H]3CC[C@@H]2O3)S(=O)(=O)N1CCCCN1CCN(c2cncc(Cl)n2)CC1` (relative stereo) [Example 8, 3aα,4β,7β,7aα-hexahydro-2-[4-[4-(6-chloro-2-pyrazinyl)-1-piperazinyl]butyl]-4,7-epoxy-1,2-benzisothiazol-3(2H)-one 1,1-dioxide, hydrochloride]: the ED50 in assay [1] (setting [3]) was found to be 34.3 mg/kg. Besides, the inhibition at 10 µM in assay [2] (read-out: Limbic D-2 Binding, % inhibition at 10 μM) turned out to be 36%. `O=C1[C@H]2[C@H]([C@@H]3CC[C@H]2O3)S(=O)(=O)N1CCCCN1CCN(c2cnccn2)CC1` (relative stereo) [Example 19, (3aα,4β,7β,7aα)-Hexahydro-2-[4-[4-(2-pyrazinyl)-1-piperazinyl]butyl]-4,7-epoxy-1,2-benzisothiazol-3(2H)-one 1,1-dioxide, dihydrochloride, hemihydrate]: the ED50 in assay [1] (setting [3]) turned out to be 47.9 mg/kg. `O=C1[C@@H]2[C@@H]([C@@H]3CC[C@H]2O3)S(=O)(=O)N1CCCCN1CCN(c2cncc(Cl)n2)CC1` (relative stereo) [Example 20, (3aα,4α,7α,7aα)-2-[4-[4-(6-Chloro-2-pyrazinyl)-1-piperazinyl]butyl]hexahydro-4,7-epoxy-1,2-benzisothiazol-3(2H)-one 1,1-dioxide, hydrochloride]: in assay [1], the “Activity at 40 mg/kg” value was “showed activity”.

A word on the Ki: it is the equilibrium dissociation constant of an inhibitor or competing ligand from its target. For `O=C1C2C3C=CC(C3)C2S(=O)(=O)N1CCCCN1CCN(c2ncccn2)CC1` (stereo not drawn) [Example 1, 3a,4,7,7a-Tetrahydro-2-[4-[4-(2-pyrimidinyl)-1-piperazinyl]butyl]-4,7-methano-1,2-benzisothiazol-3(2H)-one 1,1-dioxide, dihydrochloride, hemihydrate], the ED50 in assay [1] (setting [3]) worked out at 45.4 mg/kg. The Ki in assay [2] was 1100 nM. With `O=C1C2C3C=CC(CC3)C2S(=O)(=O)N1CCCCN1CCN(c2ncccn2)CC1` (stereo not drawn) [Example 2, 3a,3,7,7a-Tetrahydro-2-[4-[4-(2-pyrimidinyl)-1-piperazinyl]butyl]-4,7-ethano-1,2-benzisothiazol-3(2H)-one 1,1-dioxide, dihydrochloride, hydrate], the Ki in assay [2] was found to be 2000 nM.

For `CC1=C(C)CC2C(C1)C(=O)N(CCCCN1CCN(c3ncccn3)CC1)S2(=O)=O` (stereo not drawn) [Example 3, 3a,4,7,7a-Tetrahydro-5,6-dimethyl-2-[4-[4-(2-pyrimidinyl)-1-piperazinyl]butyl]-1,2-benzisothiazol-3(2H)-one 1,1-dioxide dihydrochloride], in assay [2] (read-out: Limbic D-2 Binding, % inhibition at 1 μM), the inhibition at 1 µM turned out to be 21%.

Consider `O=C1C2C3C=CC(C4CC34)C2S(=O)(=O)N1CCCCN1CCN(c2ncccn2)CC1` (stereo not drawn) [Example 6, 4,4a,5,5a,6,6a-hexahydro-2-[4-[4-(2-pyrimidinyl)-1-piperazinyl]butyl]-4,6-etheno-2H-cyclopropa[f][1,2]benzisothiazol-3(3aH)-one 1,1-dioxide,dihydrochloride], for which the Ki in assay [2] turned out to be 1410 nM. The same measure, in the same setting: then `O=C1c2ccccc2S(=O)(=O)N1CCCCN1CCN(c2nccnc2Cl)CC1` [Example 11, 2-[4-[4-(3-Chloro-2-pyrazinyl)-piperazinyl]butyl]-1,2-benzisothiazol-3(2H)-one 1,1-dioxide, hydrochloride], with 493 nM. In the case of `CC1=C(C)CC2C(C1)C(=O)N(CCCCN1CCN(c3nccnc3Cl)CC1)S2(=O)=O` (stereo not drawn) [Example 13, 2-[4-[4-(3-Chloro-2-pyrazinyl)-1-piperazinyl]butyl]-3a,4,7,7a-tetrahydro-5,6-dimethyl-1,2-benzisothiazol-3(2H)-one 1,1-dioxide, hydrochloride, hydrate], the Ki in assay [2] came to 507 nM. As for `Cl.Cl.O=C1C2C3C=CC(C3)C2S(=O)(=O)N1CCCCN1CCN(c2cncc(Cl)n2)CC1` (stereo not drawn) [Example 14, 2-[4-[4-(6-Chloro-2-pyrazinyl)-1-piperazinyl]butyl]-3a,4,7,7a-tetrahydro-4,7-methano-1,2-benzisothiazol-3(2H)-one 1,1-dioxide, dihydrochloride], in assay [1] (setting [3]), the ED50 was 78.2 mg/kg. On to `O=C1C2C3CCC(C3)C2S(=O)(=O)N1CCCCN1CCN(c2ncccn2)CC1` (stereo not drawn) [Example 15, 2-[4-[4-(2-Pyrimidinyl)-1-piperazinyl]butyl]-3a,4,5,6,7,7a-hexahydro-4,7-methano-1,2-benzisothiazol-3(2H)-one 1,1-dioxide, dihydrochloride, hemihydrate], for which the “Activity at 40 mg/kg” value in assay [1] is listed as “showed activity”. Take `Cl.O=C1C2C3CCC(C3)C2S(=O)(=O)N1CCCCN1CCN(c2cncc(Cl)n2)CC1` (stereo not drawn) [Example 16, 2-[4-[4-(6-Chloro-2-pyrazinyl)-1-piperazinyl]butyl]-3a,4,5,6,7,7a-hexahydro-4,7-methano-1,2-benzisothiazol-3(2H)-one 1,1-dioxide, hydrochloride]: in assay [1], the “Activity at 40 mg/kg” value is reported as “showed activity”. For `O=C1C2C3CCC(C4CC43)C2S(=O)(=O)N1CCCCN1CCN(c2ncccn2)CC1` (stereo not drawn) [Example 17, Hexahydro-2-[4-[4-(2-pyrimidinyl)-1-piperazinyl]butyl-4,6-ethano-2H-cycloprop[f]-1,2-benzisothiazol-3(2H)-one 1,1-dioxide, hydrochloride], in assay [1], the “Activity at 40 mg/kg” value is reported as “showed activity”. For `O=C1C2C3C=CC(C4CC34)C2S(=O)(=O)N1CCCCN1CCN(c2cncc(Cl)n2)CC1` (stereo not drawn) [Example 18, 2-[4-[4-(6-Chloro-2-pyrazinyl)-1-piperazinyl]butyl]-4,4a,5,5a,6,6a-hexahydro-4,6-etheno-2H-cycloprop[f]-1,2-benzisothiazol-3(2H)-one 1,1-dioxide, hydrochloride], the “Activity at 40 mg/kg” value in assay [1] is “showed activity”. In assay [2], the Ki worked out at 1030 nM. For `O=C1C2C3C=CC(C4C=CC43)C2S(=O)(=O)N1CCCCN1CCN(c2ncccn2)CC1` (stereo not drawn) [Example 21, 3a,4,4a,6a,7,7a-Hexahydro-2-[4-[4-(2-pyrimidinyl)-1-piperazinyl]butyl]-4,7-ethenocyclobut[f]-1,2-benzisothiazol-3(2H)-one 1,1-dioxide, dihydrochloride], the “Activity at 40 mg/kg” value in assay [1] is given as “showed activity”. For the same compound, the ED50 in assay [1] (setting [3]) was 39.4 mg/kg. Turning to `O=C(CCCN1CCC(O)(c2ccc(Cl)cc2)CC1)c1ccc(F)cc1` [Haloperidol, reference compound], the “AB50 (standard compounds)” value in assay [1] (i.p., discrete trial, rats) is 0.18 mg/kg i.p. With `O=C(CCCN1CCC2(CC1)C(=O)NCN2c1ccccc1)c1ccc(F)cc1` [Spiperone, reference compound], the ED50 in assay [1] (ip, discrete trial, rats, read-out: AB50 (standard compounds)) amounted to 0.13 mg/kg.

These data come from patent US4732984A, “Piperazinoisothiazolones with psychotropic activity” (priority 1986, dated 1988).
